Results reported in the CheMixHub ionic liquid set.
± gives the uncertainty stated by the source.

Test: xn = mol fraction of the nth substance listed

CC[NH3+].O=[N+]([O-])[O-] + CC[NH+](CC)CC.O=[N+]([O-])[O-]
101 kPa, frequency 0.00293 MHz, x2 = 0
Conditions	electrical conductivity [S/m]
293.15 K	1.93
298.15 K	2.25
313.15 K	3.37
323.15 K	4.22

101 kPa, x2 = 0
Conditions	viscosity [mPa·s]
293.15 K	43.5
298.15 K	36.5
313.15 K	22.8
323.15 K	17.6

CCCCCCCCCCCCCCCC[N+](C)(C)C.[Br-] + O
Conditions	viscosity [mPa·s]
298.15 K, 100 kPa, x1 = 7.21e-06	0.896 ± 0.06
298.15 K, 100 kPa, x1 = 2.162e-05	0.9 ± 0.06
298.15 K, 100 kPa, x1 = 7.207e-05	0.8804 ± 0.0087
298.15 K, 101 kPa, x1 = 1.46e-05	0.905
298.15 K, 101 kPa, x1 = 1.64e-05	0.9071
298.15 K, 101 kPa, x1 = 1.802e-05	0.9069
298.15 K, 101 kPa, x1 = 3.622e-05	0.9141
298.15 K, 101 kPa, x1 = 5.496e-05	0.9181
298.15 K, 101 kPa, x1 = 6.937e-05	0.9203
298.15 K, 101 kPa, x1 = 9.225e-05	0.9267
298.15 K, 101 kPa, x1 = 0.0001067	0.933
298.15 K, 101 kPa, x1 = 0.0001193	0.9362
298.15 K, 101 kPa, x1 = 0.0001429	0.9436
298.15 K, 101 kPa, x1 = 0.0001602	0.9481
298.15 K, 101 kPa, x1 = 0.0001802	0.9511
298.15 K, 101 kPa, x1 = 0.0002057	0.9556
298.15 K, 101 kPa, x1 = 0.000211	0.9553
298.15 K, 101 kPa, x1 = 0.000245	0.9662
298.15 K, 101 kPa, x1 = 0.0002573	0.9651
298.15 K, 101 kPa, x1 = 0.0002724	0.9675
303.15 K, 100 kPa, x1 = 7.207e-05	0.7984 ± 0.0084
308.15 K, 100 kPa, x1 = 7.21e-06	0.742 ± 0.06
308.15 K, 100 kPa, x1 = 2.162e-05	0.745 ± 0.06
308.15 K, 100 kPa, x1 = 7.207e-05	0.7583 ± 0.0083

298.15 K, 101 kPa, frequency 0.001 MHz
Conditions	electrical conductivity [S/m]
x1 = 1.09e-06	0.001 ± 0.0001
x1 = 2.34e-06	0.00165 ± 0.00016
x1 = 3.39e-06	0.00255 ± 0.00026
x1 = 4.43e-06	0.00305 ± 0.0003
x1 = 5.57e-06	0.00366 ± 0.00037
x1 = 6.72e-06	0.00441 ± 0.00044
x1 = 7.97e-06	0.00511 ± 0.00051
x1 = 8.91e-06	0.00577 ± 0.00058
x1 = 1.12e-05	0.00697 ± 0.0007
x1 = 1.213e-05	0.00757 ± 0.00076
x1 = 1.307e-05	0.00823 ± 0.00082
x1 = 1.411e-05	0.00873 ± 0.00087
x1 = 1.526e-05	0.00943 ± 0.00094
x1 = 1.63e-05	0.00978 ± 0.00098
x1 = 1.734e-05	0.0102 ± 0.001
x1 = 1.922e-05	0.0105 ± 0.0011
x1 = 1.995e-05	0.0108 ± 0.0011
x1 = 2.172e-05	0.0111 ± 0.0011
x1 = 2.276e-05	0.0113 ± 0.0011
x1 = 2.443e-05	0.0115 ± 0.0012
x1 = 2.599e-05	0.0117 ± 0.0012
x1 = 2.734e-05	0.012 ± 0.0012
x1 = 2.859e-05	0.0122 ± 0.0012

C[N+](C)(C)CCC[N+]1(C)CCCCC1.N#C[N-]C#N.N#C[N-]C#N + CO
100 kPa
Conditions	viscosity [mPa·s]
293.15 K, x1 = 0.5002	271 ± 31
293.15 K, x1 = 0.6001	585 ± 74
303.15 K, x1 = 0.2001	11.3 ± 1.1
303.15 K, x1 = 0.3002	28.5 ± 2.9
303.15 K, x1 = 0.5002	160 ± 17
323.15 K, x1 = 0.0999	2.73 ± 0.28
323.15 K, x1 = 0.3002	15.7 ± 1.6
333.15 K, x1 = 0.3999	24.9 ± 2.5

CCOC(C)(C)C + CCO + CCOS(=O)(=O)[O-].CC[n+]1ccn(C)c1
298.15 K, 101 kPa
Conditions	viscosity [mPa·s]
x2 = 0.1248, x1 = 0.0174	63 ± 1.8
x2 = 0.1973, x1 = 0.0324	46.3 ± 1.2
x2 = 0.3162, x1 = 0.029	30.74 ± 0.76
x2 = 0.395, x1 = 0.0475	21.09 ± 0.5
x2 = 0.4866, x1 = 0.0465	14.2 ± 0.32
x2 = 0.5653, x1 = 0.0501	9.77 ± 0.22
x2 = 0.6539, x1 = 0.3132	0.878 ± 0.025
x2 = 0.6567, x1 = 0.0845	5.13 ± 0.12
x2 = 0.6872, x1 = 0.0848	4.39 ± 0.1
x2 = 0.6916, x1 = 0.2368	1.352 ± 0.033
x2 = 0.6923, x1 = 0.035	5.65 ± 0.13
x2 = 0.7064, x1 = 0.1236	3.102 ± 0.072
x2 = 0.7089, x1 = 0.2556	0.974 ± 0.025
x2 = 0.7162, x1 = 0.1736	1.937 ± 0.046
x2 = 0.7254, x1 = 0.0338	4.79 ± 0.11
x2 = 0.7605, x1 = 0.0564	3.565 ± 0.083
x2 = 0.7622, x1 = 0.1589	1.568 ± 0.038
x2 = 0.7999, x1 = 0.077	2.401 ± 0.056
x2 = 0.8182, x1 = 0.1407	1.208 ± 0.029
x2 = 0.841, x1 = 0.072	1.86 ± 0.044
x2 = 0.902, x1 = 0.0527	1.428 ± 0.034
